Target: human recombinant LANCL1 (hLANCL1) (Homo sapiens, UniProt O43813)
Assay: [3H]ABA equilibrium saturation binding, nitrocellulose filtration

human recombinant LANCL1 (hLANCL1), sequence (O43813 whole entry): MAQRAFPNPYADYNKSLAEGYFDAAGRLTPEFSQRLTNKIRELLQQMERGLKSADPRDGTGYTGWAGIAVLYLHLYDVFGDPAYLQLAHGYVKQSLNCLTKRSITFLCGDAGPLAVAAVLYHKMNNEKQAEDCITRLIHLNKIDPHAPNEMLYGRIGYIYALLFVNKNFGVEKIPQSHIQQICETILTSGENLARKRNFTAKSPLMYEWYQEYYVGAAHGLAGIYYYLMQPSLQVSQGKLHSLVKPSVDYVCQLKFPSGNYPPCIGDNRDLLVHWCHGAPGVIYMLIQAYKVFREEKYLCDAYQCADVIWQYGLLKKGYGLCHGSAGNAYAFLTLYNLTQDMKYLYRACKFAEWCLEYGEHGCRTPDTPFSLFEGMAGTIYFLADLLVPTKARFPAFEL

Kd: 1 ± 0.4 µM
SMILES: CC1=CC(=O)CC(C)(C)C1(O)/C=C/C(C)=C\C(=O)O (racemic) [ABA, (±)-ABA]

Reference: publication PMC8237609 (Molecular Metabolism, 2021)
